Experimental data reported in PubChem BioAssay (NCI).
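Assay format: 96-well plates, 48-hour exposure. TGI: total growth inhibition.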

How the values were obtained:
Test in all cases: NCI anticancer screen, dose series, 48 h
HCT-116 colon = test system: HCT-116 colon
A549 NSCLC = test system: A549 NSCLC
KM12 colon = test system: KM12 colon
MDA-MB-231 breast = test system: MDA-MB-231 breast
LOX IMVI melanoma = test system: LOX IMVI melanoma
786-0 renal = test system: 786-0 renal
NCI-H460 lung = test system: NCI-H460 lung
SR leukemia = test system: SR leukemia
SNB-75 CNS = test system: SNB-75 CNS
HCC-2998 colon = test system: HCC-2998 colon
NCI-H23 lung = test system: NCI-H23 lung
MALME-3M melanoma = test system: MALME-3M melanoma
CAKI-1 renal = test system: CAKI-1 renal
PC-3 prostate = test system: PC-3 prostate
RXF 393 renal = test system: RXF 393 renal
COLO 205 colon = test system: COLO 205 colon
TK-10 renal = test system: TK-10 renal
UACC-257 melanoma = test system: UACC-257 melanoma
BT-549 breast = test system: BT-549 breast
SK-MEL-2 melanoma = test system: SK-MEL-2 melanoma

Compound	TGI (HCT-116 colon)	TGI (A549 NSCLC)	TGI (KM12 colon)	TGI (MDA-MB-231 breast)	TGI (LOX IMVI melanoma)	TGI (786-0 renal)	TGI (NCI-H460 lung)	TGI (SR leukemia)	TGI (SNB-75 CNS)	TGI (HCC-2998 colon)	TGI (NCI-H23 lung)	TGI (MALME-3M melanoma)	TGI (CAKI-1 renal)	TGI (PC-3 prostate)	TGI (RXF 393 renal)	TGI (COLO 205 colon)	TGI (TK-10 renal)	TGI (UACC-257 melanoma)	TGI (BT-549 breast)	TGI (SK-MEL-2 melanoma)
O=C1N=C(SC(SC2=NC(=O)C3(NN2)c2ccccc2-c2ccccc23)=C(SC2=NC(=O)C3(NN2)c2ccccc2-c2ccccc23)SC2=NC(=O)C3(NN2)c2ccccc2-c2ccccc23)NNC12c1ccccc1-c1ccccc12	> 10 µM	> 10 µM	> 10 µM	> 10 µM	> 10 µM	> 10 µM	> 10 µM	> 10 µM	> 10 µM	> 10 µM	> 10 µM	> 10 µM	> 10 µM	> 10 µM	> 10 µM	> 10 µM	> 10 µM	> 10 µM	> 10 µM	
N=C(N)C1CN(CCCCCCCCCCN2CC(C(=N)N)C(=O)NC2=O)C(=O)NC1=O (configuration not stated)	> 10 µM	> 10 µM	> 10 µM	> 10 µM	> 10 µM	> 10 µM	> 10 µM	> 10 µM	> 10 µM	> 10 µM	> 10 µM	> 10 µM	> 10 µM	> 10 µM	> 10 µM	> 10 µM	> 10 µM	> 10 µM	> 10 µM	> 10 µM
Fc1ccc(Oc2nc3ccc(C(F)(F)F)cc3nc2-c2ccccc2)cc1	> 100 µM	> 100 µM	> 100 µM	> 100 µM	> 100 µM	> 100 µM	> 100 µM	70.9 µM	> 100 µM	35.5 µM	> 100 µM	> 100 µM	70.8 µM	> 100 µM	> 100 µM	> 100 µM	> 100 µM	> 100 µM	> 100 µM	> 100 µM
CCN1CCC(O)(c2ccc(Oc3ccccc3)cc2)C(C(=O)c2ccc(Oc3ccccc3)cc2)C1 (configuration not stated)	21.2 µM	27.5 µM	18.9 µM	30.2 µM	16.9 µM	18.7 µM	13.2 µM	24.8 µM	28.9 µM	19.6 µM	27.7 µM	34.6 µM	31.2 µM	27.1 µM	53.4 µM	30 µM	27.3 µM	26.3 µM	22.5 µM	30.1 µM
S=c1nc(N2CCCCC2)c2cn[nH]c2[nH]1	> 100 µM	> 100 µM	> 100 µM	> 100 µM	> 100 µM	> 100 µM	> 100 µM	40.7 µM	> 100 µM	> 100 µM	> 100 µM	> 100 µM	> 100 µM	> 100 µM	> 100 µM	> 100 µM	> 100 µM	> 100 µM	> 100 µM	74.8 µM
CN(C)CCCNC(=O)c1c(O)c2ccccc2[nH]c1=O	> 100 µM	> 100 µM	> 100 µM	> 100 µM	> 100 µM	> 100 µM	> 100 µM	> 100 µM	> 100 µM	> 100 µM	> 100 µM	> 100 µM	> 100 µM	> 100 µM	> 100 µM	> 100 µM	> 100 µM	> 100 µM	> 100 µM	> 100 µM
CC(CC[C@@H](O)C(C)(C)O)C1[C@@H](O)CC2(C)C3CC(O)C4C(C)(C)[C@@H](OC5OC(CO)C(O)C(O)C5O)CC[C@@]45C[C@@]35CC[C@]12C (some centres not stated)	> 10 µM	> 10 µM	> 10 µM	> 10 µM		> 10 µM	> 10 µM	> 10 µM	> 10 µM	> 10 µM	> 10 µM	> 10 µM	> 10 µM	> 10 µM	> 10 µM	> 10 µM	> 10 µM	> 10 µM	> 10 µM	> 10 µM
CC1(C)C2C=C(CCN3CCOCC3)CC1C2 (configuration not stated)	> 100 µM	> 100 µM	> 100 µM	> 100 µM	> 100 µM	> 100 µM	> 100 µM	> 100 µM	> 100 µM	> 100 µM	> 100 µM	> 100 µM	> 100 µM	> 100 µM	> 100 µM	> 100 µM	> 100 µM	> 100 µM	> 100 µM	> 100 µM
Cc1c(C)c(C)c(-n2c(=O)n(C)c(=O)n2-n2c(=O)n(C)c(=O)n2-c2c(C)c(C)c(C)c(C)c2C)c(C)c1C	> 100 µM	> 100 µM	> 100 µM	> 100 µM	> 100 µM	> 100 µM	> 100 µM	> 100 µM	> 100 µM	> 100 µM		> 100 µM	> 100 µM	> 100 µM	> 100 µM	> 100 µM	> 100 µM	> 100 µM	> 100 µM	> 100 µM
COc1c2cc(C(C)(C)C)cc1Cc1cccc(c1OCc1cccc([N+](=O)[O-])c1)Cc1cc(C(C)(C)C)cc(c1OC)Cc1cccc(c1OCc1cccc([N+](=O)[O-])c1)Cc1cc(C(C)(C)C)cc(c1OC)Cc1cccc(c1OCc1cccc([N+](=O)[O-])c1)C2	> 50 µM	> 50 µM	> 50 µM	> 50 µM		> 50 µM	> 50 µM	> 50 µM	> 50 µM	> 50 µM	> 50 µM	> 50 µM	> 50 µM	> 50 µM	> 50 µM	> 50 µM		> 50 µM	> 50 µM	> 50 µM
CC(=O)OC/C=C/[C@H](O[Si](C)(C)C(C)(C)C)[C@@H](O)/C=C/COC(C)=O	> 100 µM	> 100 µM	> 100 µM	> 100 µM	> 100 µM	> 100 µM	> 100 µM	86.2 µM	> 100 µM	> 100 µM	> 100 µM	> 100 µM	> 100 µM	> 100 µM	> 100 µM	> 100 µM	> 100 µM	> 100 µM	> 100 µM	> 100 µM
O=C(c1ccccc1)n1c(Cc2ccccc2)nc2cc(C34CC5CC(CC(C5)C3)C4)ccc21	> 100 µM	> 100 µM	> 100 µM	> 100 µM	> 100 µM	> 100 µM	> 100 µM	> 100 µM	> 100 µM	> 100 µM	> 100 µM	> 100 µM	> 100 µM	> 100 µM	> 100 µM	58.2 µM	> 100 µM	> 100 µM	> 100 µM	> 100 µM
O=C1C(N2CCN(c3ccccn3)CC2)=C(Cl)C(=O)c2ncccc21	3.13 µM	> 10 µM	> 5.95 µM	> 7.14 µM	5.35 µM	3.21 µM	> 10 µM	> 6.21 µM	> 10 µM	> 6.52 µM	3.68 µM	2.75 µM	2.12 µM	> 10 µM	3.56 µM	3.49 µM	> 6.41 µM	> 5.88 µM	> 10 µM	4.67 µM
CC[C@H](CCCC[C@H]1CC[C@@H]2CC(=O)C[C@H]12)OC	> 100 µM	> 100 µM	> 100 µM	> 100 µM	> 100 µM	> 100 µM	> 100 µM	> 100 µM	> 100 µM	> 100 µM	> 100 µM	> 100 µM	> 100 µM	> 100 µM	> 100 µM	> 100 µM	> 100 µM	> 100 µM	> 100 µM	> 100 µM
c1ccc(-c2nnc(-c3ccccn3)c3c2C[C@@H]2C[C@@H]4Cc5c(-c6ccccn6)nnc(-c6ccccn6)c5[C@@H]4[C@H]32)nc1	> 100 µM	> 100 µM	> 100 µM	> 100 µM	> 100 µM	> 100 µM	88 µM	> 100 µM	> 100 µM	> 100 µM	> 100 µM	> 100 µM	> 100 µM	> 100 µM	> 100 µM	> 100 µM	> 100 µM	> 100 µM	> 100 µM	> 100 µM
COc1cc(C=O)cc(/C=N/n2c3ccccc3c3ccccc32)c1O	> 100 µM	> 100 µM	> 100 µM	> 100 µM	> 100 µM	> 100 µM	> 100 µM	> 100 µM	15.7 µM	67.4 µM	> 100 µM	> 100 µM	> 100 µM	> 100 µM	99.7 µM	52.1 µM	> 100 µM	> 100 µM	9.7 µM	
CC(=O)C1(Cc2cccc3ccccc23)S(=O)(=O)OCCOS1(=O)=O	41 µM		28.8 µM	29.6 µM	25.7 µM	44 µM	34 µM	44 µM	65.4 µM	31.6 µM	60.4 µM	33 µM	30.1 µM	29.3 µM	26.7 µM	30.8 µM	39.6 µM	16.6 µM	30.6 µM	
O=C(NNC(=S)Nc1ccccc1)c1cc(-c2ccccc2)nc2ccccc12	28.5 µM	41.2 µM	> 100 µM	52.5 µM		30 µM	> 100 µM	32.9 µM	71.3 µM	30.5 µM	37.9 µM	82.4 µM	64.8 µM	56.4 µM	46.4 µM	36.8 µM	> 100 µM	60.1 µM	49.6 µM	31.9 µM
C/C(=C(/C)c1ccc(O)cc1)c1ccc(O)cc1	> 100 µM	> 100 µM	> 100 µM	> 100 µM		> 100 µM	> 100 µM	83.8 µM	> 100 µM	> 100 µM	> 100 µM	> 100 µM	> 100 µM	> 100 µM	> 100 µM	> 100 µM	> 100 µM	> 100 µM	> 100 µM	> 100 µM
COC(=O)C1CC2CCC1(O[Si](C(C)C)(C(C)C)C(C)C)C(O)C2 (configuration not stated)	36.2 µM	33.4 µM	38.6 µM	38.9 µM	27.5 µM	31.5 µM	> 100 µM	26.6 µM	> 100 µM	46 µM	44.9 µM	> 100 µM	> 100 µM	47.7 µM	28.8 µM	71.2 µM			79.3 µM	32.1 µM
N#CC(C#N)=C1c2ccccc2C(=NN)c2ccccc21			> 100 µM	> 100 µM		> 100 µM		> 100 µM	> 100 µM	> 100 µM		> 100 µM	> 100 µM	> 100 µM	> 100 µM	> 100 µM	> 100 µM	> 100 µM	> 100 µM	> 100 µM
CC1OC(OC2C(O)COC(OC3C(C)OC(OC4C(OC(=O)[C@]56CCC(C)(C)C[C@@H]5C5=CCC7[C@@]8(C)C[C@H](O)[C@H](OC9OC(CO)C(O)C(OC%10OC(CO)C(O)C(O)C%10O)C9O)[C@@](C)(CO)[C@@H]8CC[C@@]7(C)[C@]5(C)CC6)OCC(O)C4O)C(O)C3OC3OCC(O)(CO)C3O)C2O)C(O)C(O)C1O (some centres not stated)	32.2 µM	13.9 µM	26.2 µM	16.7 µM	17.8 µM	15.4 µM	36.2 µM	16 µM	21.3 µM	20.8 µM	14.3 µM	13.2 µM	12.4 µM	13.7 µM	17.2 µM	14.9 µM	22.1 µM	20.9 µM	13.3 µM	
